According to ChEMBL document CHEMBL4339233, “Structure-activity relationship study of antitrypanosomal chalcone derivatives using multivariate analysis” (Bioorg Med Chem Lett, 2019):

Tests used:
Trypanosoma cruzi = experiment: Antitrypanosomal activity against Trypanosoma cruzi Y trypomastigotes infected in LLC-MK2-ATCC CCL7 cells assessed as reduction in parasite growth incubated for 24 hrs by Alamar blue dye based assay; assay type: functional, organism-based
[1] = Cytotoxicity in mouse NCTC-929 cells assessed as reduction in cell viability incubated for 48 hrs by MTT assay; assay type: cell-based; conditions: NCTC-929 (L929) cells
[2] = Selectivity index, ratio of CC50 for cytotoxicity in mouse NCTC-929 cells to EC50 for Antitrypanosomal activity against Trypanosoma cruzi trypomastigotes infected in LLC-MK2-ATCC CCL7 cells; assay type: toxicity, cell-based; conditions: read-out: Ratio CC50/EC50

Row | SMILES | EC50 (Trypanosoma cruzi) | CC50 at 48 h [1] | selectivity ratio [2]
1 | CN(C)c1ccc(/C=C/C(=O)c2ccc(-c3ccccc3)cc2)cc1 | > 100 µM | > 200 µM | –
2 | O=C(/C=C/c1ccccc1)c1ccc(-c2ccccc2)cc1 | > 100 µM | > 200 µM | –
3 | O=C(/C=C/c1ccc2c(c1)OCO2)c1ccc(Cl)cc1 | 60 µM | > 200 µM | –
4 | OC(CCc1ccc2c(c1)OCO2)c1ccc(Cl)cc1 (racemic) | > 100 µM | > 200 µM | –
5 | CN(C)c1ccc(CCC(O)c2cccc(O)c2)cc1 (racemic) | > 100 µM | > 200 µM | –
6 | CN(C)c1ccc(/C=C/C(=O)c2ccc(Cl)cc2)cc1 | > 100 µM | > 200 µM | –
7 | O=[N+]([O-])c1ccc(C(O)CCc2ccccc2)cc1 (racemic) | > 100 µM | > 200 µM | –
8 | O=C(/C=C/c1ccccc1)c1cccc(O)c1 | 26 µM | 29.9 µM | 1.1
9 | C=CCOc1ccccc1C(=O)/C=C/c1ccc2c(c1)OCO2 | 18.9 µM | 82.3 µM | 4.3
10 | COc1ccc(C(=O)/C=C/c2ccc3c(c2)OCO3)cc1 | > 100 µM | > 200 µM | –
11 | COc1ccc(C(=O)/C=C/c2ccc([N+](=O)[O-])cc2)cc1 | > 100 µM | > 200 µM | –
12 | CN(C)c1ccc(/C=C/C(=O)c2cccc(O)c2)cc1 | 28.6 µM | > 200 µM | > 7
13 | O=C(/C=C/c1ccccc1)c1ccccc1 [CHALCONE] | 26.9 µM | 89.3 µM | 3.3
14 | COc1ccc(C(=O)/C=C/c2ccc(N(C)C)cc2)cc1 | > 100 µM | > 200 µM | –
15 | COc1cc(/C=C/C(=O)c2ccc(-c3ccccc3)cc2)cc(OC)c1OC | 3.3 µM | 29 µM | 8.9
16 | CN(C)c1ccc(/C=C/C(=O)c2ccccc2)cc1 | 73.2 µM | 117 µM | 1.6
17 | COc1ccc(C(=O)/C=C/c2ccc(Cl)cc2)cc1 | > 100 µM | 120 µM | –
18 | O=C(Cn1ccnc1[N+](=O)[O-])NCc1ccccc1 [BENZNIDAZOLE] | 16.5 µM | > 200 µM | –

Row | SMILES | EC50 (Trypanosoma cruzi) | CC50 at 48 h [1] | selectivity ratio [2]
19 | O=C(/C=C/c1ccc2c(c1)OCO2)c1ccc([N+](=O)[O-])cc1 | > 100 µM | > 200 µM | –
20 | CN(C)c1ccc(/C=C/C(=O)c2ccc([N+](=O)[O-])cc2)cc1 | > 100 µM | > 200 µM | –
21 | C=CCOc1ccccc1C(=O)/C=C/c1ccccc1 | 10.6 µM | 77.6 µM | 7.3
22 | O=C(CCc1ccc2c(c1)OCO2)c1ccc(Cl)cc1 | > 100 µM | > 200 µM | –
23 | COc1cc(CCC(O)c2ccc(-c3ccccc3)cc2)cc(OC)c1OC (racemic) | 28.3 µM | 95.6 µM | 3.4
24 | CN(C)c1ccc(/C=C/C(=O)c2ccccc2O)cc1 | > 100 µM | 50.4 µM | –
25 | COc1cc(/C=C/C(=O)c2ccccc2)cc(OC)c1OC | 18.4 µM | 27.3 µM | 1.5
26 | COc1cc(CCC(=O)c2ccc(-c3ccccc3)cc2)cc(OC)c1OC | > 100 µM | > 200 µM | –
27 | O=C(/C=C/c1ccc2c(c1)OCO2)c1cccc(O)c1 | 26.5 µM | 24.5 µM | 1
28 | O=C(/C=C/c1ccc2c(c1)OCO2)c1ccccc1 | 60.9 µM | 100 µM | 1.6
29 | O=C(/C=C/c1ccccc1)c1ccccc1O [2'-HYDROXYCHALCONE] | 28.8 µM | 79.5 µM | 2.8
30 | Oc1ccccc1C(O)CCc1ccccc1 (racemic) | > 100 µM | > 200 µM | –
31 | CN(C)c1ccc(CCC(=O)c2cccc(O)c2)cc1 | > 100 µM | > 200 µM | –
32 | O=C(/C=C/c1ccc2c(c1)OCO2)c1ccccc1O | > 100 µM | 140 µM | –
33 | O=C(CCc1ccccc1)c1ccc([N+](=O)[O-])cc1 | > 100 µM | > 200 µM | –
34 | CN(C)c1ccc(/C=C/C(=O)c2cccc(N)c2)cc1 | > 100 µM | 101 µM | –
35 | COc1ccc(C(=O)/C=C/c2ccccc2)cc1 [4'-METHOXYCHALCONE] | > 100 µM | 50.4 µM | –
36 | O=C(/C=C/c1ccccc1)c1ccc([N+](=O)[O-])cc1 | 13.9 µM | 127 µM | 9.1
